Measured values reported in article PMC11393688, “Design and synthesis of new 1,2,4-oxadiazole/quinazoline-4-one hybrids with antiproliferative activity as multitargeted inhibitors” (Frontiers in Chemistry, 2024).

Tests used:
[1] = system: lung cancer (A-549) cell line; assay: Antiproliferative MTT assay, A-549; format: cell-based; details: Homo sapiens, A549, A-549 lung cancer cells, read-out: Antiproliferative activity IC50 ± SEM A-549
Procedure: (§1) 4.2.1.2. Assay for antiproliferative effect
(§2) To explore the antiproliferative potential of compounds MTT assay was performed according to previously reported procedure using different cell lines to explore the antiproliferative potential of […]
(§3) calculate the total nuclear DNA, a fluorescent dye (propidium iodide, PI) is used which can attach to the DNA, thus offering a quick and precise technique. PI cannot pass through the cell membrane and its signal intensity can be considered as directly proportional to quantity of cellular DNA.
(§4) Cells whose cell membranes are damaged or have changed permeability are counted as dead ones.
(§5) The assay was performed by seeding the cells of different cell lines at a density of 3000-7500 cells/well (in 200µl medium) in culture plates followed by incubation for 24h at 37 °C in humidified 5% CO2/95% air atmospheric conditions. The medium was removed; the compounds were added to the plates at 10 µM concentrations (in 0.1% DMSO) in triplicates, followed by incubation for 48 h. DMSO (0.1%) was used as control. After incubation, medium was removed […]
(§6) 80 °C, the plates were allowed to freeze for 24 h, followed by thawing at 25 °C. […]
(§7) (Polar-Star BMG Tech) was used to record the readings at excitation and emission wavelengths of 530 and 620 nm for each well. The percentage cytotoxicity of compounds was calculated using […]
(§8) Where ATC= Absorbance of treated cells and AC= Absorbance of control. Erlotinib was used as positive control in the assay.

[2] = target: EGFR^T790M (Homo sapiens, UniProt P00533, T790M); assay: EGFR^T790M inhibitory assay (HTRF KinEASE-TK)
EGFR^T790M, sequence (P00533 25-1210 T790M): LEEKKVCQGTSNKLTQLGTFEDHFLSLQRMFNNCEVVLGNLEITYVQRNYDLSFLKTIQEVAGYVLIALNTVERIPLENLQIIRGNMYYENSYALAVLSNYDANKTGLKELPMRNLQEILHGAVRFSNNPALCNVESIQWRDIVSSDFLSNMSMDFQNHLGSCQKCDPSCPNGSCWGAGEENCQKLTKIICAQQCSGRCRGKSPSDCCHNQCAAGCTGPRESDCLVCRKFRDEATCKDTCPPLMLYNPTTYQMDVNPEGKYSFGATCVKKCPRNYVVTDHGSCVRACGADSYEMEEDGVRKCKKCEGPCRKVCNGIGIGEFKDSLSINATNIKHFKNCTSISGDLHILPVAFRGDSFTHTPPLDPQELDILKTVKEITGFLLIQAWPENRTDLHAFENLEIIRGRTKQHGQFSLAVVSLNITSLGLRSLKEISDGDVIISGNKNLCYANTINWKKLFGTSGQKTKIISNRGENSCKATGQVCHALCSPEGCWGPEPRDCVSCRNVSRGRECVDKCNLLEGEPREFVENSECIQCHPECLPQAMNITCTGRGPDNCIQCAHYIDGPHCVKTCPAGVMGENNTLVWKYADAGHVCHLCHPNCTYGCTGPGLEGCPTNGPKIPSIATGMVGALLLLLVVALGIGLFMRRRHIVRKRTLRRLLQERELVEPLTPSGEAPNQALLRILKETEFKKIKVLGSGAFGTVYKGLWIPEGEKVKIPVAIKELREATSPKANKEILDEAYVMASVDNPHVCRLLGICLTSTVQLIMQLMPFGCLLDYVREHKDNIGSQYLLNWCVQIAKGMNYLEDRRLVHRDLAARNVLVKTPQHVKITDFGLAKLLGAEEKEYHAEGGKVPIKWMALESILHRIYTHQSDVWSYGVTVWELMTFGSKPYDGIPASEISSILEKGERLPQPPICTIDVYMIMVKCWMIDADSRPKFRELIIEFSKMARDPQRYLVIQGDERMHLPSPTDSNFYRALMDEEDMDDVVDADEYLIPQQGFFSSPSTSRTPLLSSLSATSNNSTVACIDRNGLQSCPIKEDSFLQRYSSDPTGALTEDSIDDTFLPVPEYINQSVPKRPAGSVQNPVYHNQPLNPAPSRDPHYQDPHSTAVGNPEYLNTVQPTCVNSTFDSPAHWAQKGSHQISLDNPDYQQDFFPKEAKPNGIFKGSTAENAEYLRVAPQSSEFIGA

[3] = system: breast cancer (MCF-7) cell line; assay: Antiproliferative MTT assay, MCF-7; format: cell-based; details: Homo sapiens, MCF7, MCF-7 breast cancer cells, read-out: Antiproliferative activity IC50 ± SEM MCF-7
Procedure: as §1, §2, §3, §4, §5, §6, §7, §8

[4] = system: four human cancer cell lines (HT-29, Panc-1, A-549, MCF-7); assay: Average antiproliferative activity (GI50) over four cancer cell lines; format: cell-based; details: average IC50 against the four cancer cell lines
Procedure: as §1, §2, §3, §4, §5, §6, §7, §8

[5] = Cell viability, MTT test on normal cell line; format: cell-based; details: human, MCF-10A mammary gland epithelial cells (normal cell line), MCF-10A normal cells, 4 days incubation
Procedure: The human mammary gland epithelial (MCF-10A) normal cell line was used to test the viability of novel compounds 9a-o ([Mahmoud et al., 2022]; [Mekheimer et al., 2022]). After 4 days of incubation on MCF-10A cells, the cell viability of compounds 9a-o was determined using the MTT test.
The human mammary gland epithelial (MCF-10A) normal cell line was used to test the viability of compounds 9a-o ([Mahmoud et al., 2022]; [Mekheimer et al., 2022]). Refer to Supplementary Appendix A (Supplementary Material) for more details.
4.2. Biological evaluation
4.2.1. Cytotoxic activity using MTT Assay and evaluation of IC50
MTT assay was carried out to study the effect of compounds on mammary epithelial cells (MCF-10A). The medium in which cells were propagated contained Dulbecco's modified Eagle's medium (DMEM)/ Ham's F-12 medium (1:1) supplemented with epidermal growth factor (20 ng/mL), hydrocortisone (500 ng/mL), insulin (10 μg/mL), 2 mM glutamine and 10% foetal calf serum.
After every 2-3 days, the cells were passaged using trypsin ethylenediamine tetra acetic acid (EDTA). The cells were seeded at a density of 10^4 cells mL-1 in flat-bottomed culture plates containing 96 wells each. After 24 h, medium was removed from the plates and the compounds in (in 0.1% DMSO) were added (in 200 μL medium to yield a final concentration of 0.1% v/v) to the wells of plates. A single compound was designated with four wells followed by incubation of plates for 96h at 37°C. After incubation, medium was removed completely from the plates followed by addition of MTT (0.4 mg/mL in medium) to each well and subsequent incubation of plates for 3h. MTT (along with the medium) was removed and DMSO (150μL) was added to each well of the culture plates, followed by vertexing and subsequent measurement of absorbance (at 540 nm) using microplate reader. The data are shown as percentage inhibition of proliferation in comparison with controls containing 0.1% DMSO.

- IC50 [1]: 22 ± 2 nM
- IC50 [2]: 10 ± 1 nM
- IC50 [3]: 26 ± 2 nM
- GI50 [4]: 24 nM
Structure (SMILES): O=c1c2ccccc2nc(SCc2nc(-c3ccc(Cl)cc3)no2)n1-c1ccccc1 [Compound 9b, 2-((3-(4-Chlorophenyl)-1,2,4-oxadiazol-5-yl)methylthio)-3 phenylquinazolin-4(3H)-one]
- viability at 96 h, 50 µM [5]: 89%
